Measurements reported in patent US20160361250A1, “ACTIVE INGREDIENTS STIMULATING TYPE 2 AND/OR TYPE 3 HUMAN BETA-DEFENSINS AND COSMETIC OR PHARMACEUTICAL COMPOSITIONS CONTAINING SUCH ACTIVE INGREDIENTS” (BASF Beauty Care Solutions France S.A.S., priority 2002, published 2016).

Experiments:
[1] = tested on: hBD2; assay: Quantitative RT-PCR of hBD2 expression, 2nd step (dose-effect); format: cell-based, human; settings: for hBD2 expression, percentage of the control: 16 h, untreated control = 100%
Protocol: (§1) The actives are then tested on 5 concentrations (from 0.001% to max viability) in quadruplicate on normal human keratinocytes as a monolayer on 96-well culture plates, in a specific medium enriched with calcium and free of serum (CaCl2 1.7 mM) (same conditions as in example 1).
(§2) After 16 h, the supernatants are collected and cells are dry frozen at −80° C. after rinsing in PBS.
(§3) Total RNA are extracted using a 96-well extraction kit on silica columns and assayed using a 96-well spectrophotometer at 260 and 280 nm. RNA are diluted to 5 ng/μL.
(§4) Quantitative RT-PCR in 96 wells on actin, hBD2 and hBD3 is initially carried out on 50 ng of RNA, using a one-step kit containing Sybrgreen, in a fluorescence thermocycler with the same primers as previously (0.5 μM). The amplification program is as follows: 50° C., 30 min; 94° C., 15 min; (94° C., 15 s; 60° C., 30 s; 72° C., 30 s)×50 cycles; 90° C., 1 min; 30° C., 1 min; 50° C. to 95° C. (10 s every ° C.); 14° C., infinite.
(§5) A study of the fusion graphs makes it possible to verify the specificity of amplified products. The fluorescence graph as a function of the number of cycles gives the C(T) value corresponding to the number of cycles needed to obtain initiation of the fluorescence signal. The more an mRNA is expressed, the lower the C(T) value. Calculation of Sgene=(½)^C(T) for each RNA takes into consideration the exponential increase in the number of copies during amplification. The Sgene hBD2/Sgene actin and Sgene hBD3/Sgene actin ratios can be compared with those of the untreated control to give the percentage stimulation produced.
(§6) Quantitative RT-PCR makes it possible to obtain a basal value for the defensin expression for untreated controls. The results are therefore expressed as a percentage of the control. IL8, IL1 and MIP3 cytokine levels are given as pg/mL/RNA concentration (in ng/μL).
(§7) In the same way as in example 2, retinoic acid and retinol were tested for their capacity to stimulate hBD2 and/or hBD3.

[2] = tested on: hBD3; assay: Quantitative RT-PCR of hBD3 expression, 2nd step (dose-effect); format: cell-based, human; settings: for hBD3 expression, percentage of the control: 16 h, untreated control = 100%
Protocol: as §1, §2, §3, §4, §5, §6, §7

[3] = tested on: animals; settings: in vivo
[4] = tested on: human volunteers; settings: in vivo
[5] = tested on: hBD2; assay: Qualitative RT-PCR of hBD2 expression, 1st step of the screening method; format: cell-based; settings: 100 μg/mL; normal human keratinocytes, 16 h
Protocol: (§8) A 1% concentration of the actives is tested on normal human keratinocytes, as a monolayer, on 96-well culture plates, in a specific medium enriched with calcium and free of serum (final concentration 1.7 mM).
(§9) At 80% confluence, cells are contacted with the actives (1 active per well) for 16 h. An untreated control and 2 positive controls (TNFα 100 ng/mL for hBD2 and IFNγ 100 ng/mL for hBD3) are set up in parallel on the same culture plate.
as §2
(§10) Total RNA are extracted using a 96-well extraction kit on silica columns and assayed using a 96-well spectrophotometer at 260 and 280 nm. RNA are diluted to 5 ng/mL.
(§11) Qualitative one-step RT-PCR is performed on 50 ng of initial RNA in 96 wells, on actin, hBD2 and hBD3. The primers are used at a concentration of 0.5 μM and arc taken from the literature:—hBD2: sense: 5′-[…]-3′; hBD2 antisense 5′-[…]-3′ (Harder J. et al., A peptide antibiotic from human skin. Nature 1997; 387 : 861); hBD3 sense: 5′-[…]-3′; hBD3 antisense: 5′-[…]-3′; actin sense: 5′-[…]-3′; actin antisense: 5′-[…]-3′ (Harder J. et al., Isolation and characterization of human β-defensin-3, a novel human inducible peptide antibiotic. J Biol Chem 2001, 276 : 5707-5713).
(§12) Samples are placed in a thermocycler and follow a common amplification program: 50° C., 30 min; 94° C., 2 min, (94° C., 30 s; 60° C., 30 s; 68° C., 30 s), 32 cycles for the defensins and 30 cycles for actin; 72° C., 10 min; 14° C., infinite.
(§13) After amplification, the products are mixed at a rate of 3 μL of actin amplification products+6 μL of hBD2 amplification products+6 μL of hBD3 amplification products. 5 μL of a mixture of charge buffer and water (⅔) are added and the final 20 μL are deposited on 2% premoulded agarose gel. The samples migrate in 30 minutes and the bands are visualised under UV in a dark room then digitally photographed.
(§14) Photos of the gels are analysed by image processing software which quantifies the intensity of the bands. As the basal level of defensin expression (untreated control) is not detectable, the intensity ratios of the hBD2/actin and hBD3/actin bands can be compared, for example with those obtained for the positive control (treated with TNFα for hBD2 and IFNγ for hBD3) and indicate any stimulation of the expression of the β-defensin in question
(§15) Since the basal level of defensin expression is generally not detectable, stimulation of hBD2 and hBD3 is expressed as a percentage of the positive controls (TNFα for hBD2 and IFNγ for hBD3). IL8 and MIP3α levels are given as pg/mL/RNA concentration (in ng/μL).

[6] = tested on: hBD3; assay: Qualitative RT-PCR of hBD3 expression, 1st step of the screening method; format: cell-based; settings: 100 μg/mL; normal human keratinocytes, 16 h
Protocol: as §9, §2, §10, §11, §12, §13, §14, §15

[7] = tested on: MIP3α; assay: ELISA of MIP3α secreted into the culture medium, 1st step; format: cell-based, human; settings: 100 μg/mL; keratinocyte supernatant, 16 h
Protocol: (§16) At the end of this first step, the actives having exerted an effect on β-defensin expression are selected and the supernatants corresponding to these actives are then tested using an ELISA kit in order to determine the levels of MIP3α, IL1 and IL8 secreted into the culture medium under the effect of the actives. The levels are then referred to the RNA concentration assayed in each well in order to compare results with each other.
as §15

[8] = tested on: IL8; assay: ELISA of IL8 secreted into the culture medium, 1st step; format: cell-based, human; settings: 100 μg/mL; keratinocyte supernatant, 16 h
Protocol: as §16, §15

[9] = tested on: MIP3α; assay: ELISA of MIP3α in supernatants, 2nd step; format: cell-based, human; settings: supernatant, 16 h
Protocol: (§17) The supernatants of the actives, whose capacity to induce defensins has been confirmed, are tested using an ELISA kit in order to assay MIP3α, IL8 and IL1α levels. These assays are performed on the same supernatant (200 μL) by carrying out a series dilution (by 1.5 to assay MIP3α and IL8, then by 2 to assay IL1). The levels are then referred to the RNA concentration assayed in each well in order to compare results with each other.
as §6

[10] = tested on: IL8; assay: ELISA of IL8 in supernatants, 2nd step; format: cell-based, human; settings: supernatant, 16 h
Protocol: as §17, §6

[11] = tested on: IL1α; assay: ELISA of IL1α in supernatants, 2nd step; format: cell-based, human; settings: supernatant, 16 h
Protocol: as §17, §6

[12] = tested on: hBD2 and/or hBD3; assay: 1st step of the screening method, overall outcome (defensin RT-PCR plus MIP3α/IL8 ELISA); format: cell-based, human; settings: concentrations of Tables I and II
Protocol: as §8, §9, §2, §10
Qualitative one-step RT-PCR is performed on 50 ng of initial RNA in 96 wells, on actin, hBD2 and hBD3. The primers are used at a concentration of 0.5 μM and arc taken from the literature:—hBD2: sense: 5′-[…]-3′; hBD2 antisense 5′-[…]-3′ (Harder J. et al., A peptide antibiotic from human skin. Nature 1997; 387 : 861); hBD3 sense: 5′-[…]-3′; hBD3 antisense: 5′-[…]-3′; actin sense: 5′-[…]-3′; actin antisense: 5′-[…]-3′ (Harder J. et al., Isolation and characterization of human β-defensin-3, a novel human inducible peptide antibiotic. J Biol Chem 2001, 276 : 5707-5713). […]
Photos of the gels are analysed by image processing software which quantifies the intensity of the bands. […]

[13] = tested on: hBD2 and/or hBD3; assay: 2nd step of the screening method, overall outcome (quantitative RT-PCR plus MIP3α/IL8/IL1α ELISA); format: cell-based, human
Protocol: The actives which best satisfied the criteria for the first step undergo a dose-effect analysis.
as §1, §2, §3, §4, §5
The supernatants of the actives, whose capacity to induce defensins has been confirmed, are tested using an ELISA kit in order to assay MIP3α, IL8 and IL1α levels. These assays are performed on the same supernatant (200 μL) by carrying out a series dilution (by 1.5 to assay MIP3α and IL8, then by 2 to assay IL1). […]

CC1=C(/C=C/C(C)=C/C=C/C(C)=C/C(=O)O)C(C)(C)CCC1 [Retinoic acid]
hBD2 expression, percentage of the control ([1]; conc. 0.005%): 26% | hBD3 expression, percentage of the control ([2]; conc. 0.005%): 161% | irritation / allergy, primary skin irritation (in words) [3]: not inducing any inflammatory, irritation or intolerance reaction | irritation / allergy, irritant or sensitizing potential (in words) [4]: not inducing any inflammatory, irritation or intolerance reaction

CC/C=C\C[C@H]1C(=O)CC[C@@H]1CC(=O)O [Jasmonic Acid]
HBD2 expression, percentage of the positive control (TNFα) [5]: 7% | HBD3 expression, percentage of the positive control (IFNγ) [6]: 0% | MIP3α level [7]: 6 pg/mL/RNA concentration (in ng/μL) | IL8 level [8]: 25.3 pg/mL/RNA concentration (in ng/μL) | hBD2 expression, percentage of the control ([1]; conc. 100 μg/mL): 86% | hBD2 expression, percentage of the control ([1]; conc. 500 μg/mL): 134% | hBD3 expression, percentage of the control ([2]; conc. 100 μg/mL): 477% | hBD3 expression, percentage of the control ([2]; conc. 500 μg/mL): 26919% | MIP3α level ([9]; conc. 100 μg/mL): 4.6 pg/mL/RNA concentration (in ng/μL) | MIP3α level ([9]; conc. 500 μg/mL): 13.6 pg/mL/RNA concentration (in ng/μL) | IL8 level ([10]; conc. 100 μg/mL): 37.9 pg/mL/RNA concentration (in ng/μL) | IL8 level ([10]; conc. 500 μg/mL): 103.3 pg/mL/RNA concentration (in ng/μL) | IL1α level ([11]; conc. 100 μg/mL): 31.2 pg/mL/RNA concentration (in ng/μL) | IL1α level ([11]; conc. 500 μg/mL): 97.1 pg/mL/RNA concentration (in ng/μL) | satisfying the criteria for the first step (in words) [12]: stimulate hBD2 and/or hBD3 without triggering the expression of MIP3 and IL8 cytokines | induction of defensins 2 and/or 3 (in words) ([13]; jasmonic acid 100 μg/mL, α-MSH as in Table III): capable of inducing defensins 2 and/or 3 | satisfying the criteria of the invention (in words) ([13]; second step): stimulate hBD2 and/or hBD3 without triggering the expression of MIP3, IL8 or IL1 cytokines

CC1=C(/C=C/C(C)=C/C=C/C(C)=C/CO)C(C)(C)CCC1 [Retinol]
effect on hBD2 (in words) ([1]; 0.01%): weakly stimulates hBD2 | hBD2 expression, percentage of the control ([1]; conc. 0.01%): 168% | effect on hBD3 (in words) ([2]; 0.01%): strongly stimulates hBD3 | hBD3 expression, percentage of the control ([2]; conc. 0.01%): 17 562% | irritation / allergy, primary skin irritation (in words) [3]: not inducing any inflammatory, irritation or intolerance reaction | irritation / allergy, irritant or sensitizing potential (in words) [4]: not inducing any inflammatory, irritation or intolerance reaction
